Our source for the mutagenic call values is PubChem BioAssay AID1259407 (Chemical Carcinogenesis Research Information System (CCRIS), 2018).

The source made the active and inactive calls. The rule behind the calls is not given here.

The subject of the data set is CCRIS mutagenicity, Ames/micronucleus/aberration tests. Description: CCRIS mutagenicity studies. The following applies: Test System: AMES SALMONELLA TYPHIMURIUM
Setting [1] is: Strain/Indicator: TA98, Metabolic Activation: NONE, Method: STANDARD PLATE.
[2] abbreviates: Strain/Indicator: TA98, Metabolic Activation: RAT, LIVER, S-9, AROCLOR 1254, Method: STANDARD PLATE.
The mark [3] stands for this setting: Strain/Indicator: TA100, Metabolic Activation: NONE, Method: STANDARD PLATE.
Where [4] appears, read: Strain/Indicator: TA100, Metabolic Activation: RAT, LIVER, S-9, AROCLOR 1254, Method: STANDARD PLATE.
The mark [5] stands for this setting: Strain/Indicator: TA1535, Metabolic Activation: NONE, Method: STANDARD PLATE.
Setting [6] is: Strain/Indicator: TA1535, Metabolic Activation: RAT, LIVER, S-9, AROCLOR 1254, Method: STANDARD PLATE.
The mark [7] stands for this setting: Strain/Indicator: TA1537, Metabolic Activation: NONE, Method: STANDARD PLATE.
The mark [8] stands for this setting: Strain/Indicator: TA1537, Metabolic Activation: RAT, LIVER, S-9, AROCLOR 1254, Method: STANDARD PLATE.

For `CCCCC(CC)COC(=O)c1ccc(N(C)C)c([N+](=O)[O-])c1` (configuration not stated), the mutagenic call runs as follows: (Strain/Indicator: TA98, Metabolic Activation: HAMSTER, LIVER, S-9, AROCLOR 1254 (10%), Method: STANDARD PLATE) “active; positive”; (Strain/Indicator: TA98, Metabolic Activation: HAMSTER, LIVER, S-9, AROCLOR 1254, Method: STANDARD PLATE) “active; positive”; under setting [1], “active; positive”; (Strain/Indicator: TA98, Metabolic Activation: RAT, LIVER, S-9, AROCLOR 1254 (10%), Method: STANDARD PLATE) “active; positive”; under setting [2], “active; positive”; (Strain/Indicator: TA100, Metabolic Activation: HAMSTER, LIVER, S-9, AROCLOR 1254 (10%), Method: STANDARD PLATE) “inactive; negative”. Moreover, the mutagenic call (Strain/Indicator: TA100, Metabolic Activation: HAMSTER, LIVER, S-9, AROCLOR 1254, Method: STANDARD PLATE) is “inactive; negative”; the mutagenic call under setting [3] is “inactive; negative”; the mutagenic call (Strain/Indicator: TA100, Metabolic Activation: RAT, LIVER, S-9, AROCLOR 1254 (10%), Method: STANDARD PLATE) is “inactive; negative”; the mutagenic call under setting [4] was “inactive; negative”; the mutagenic call (Strain/Indicator: TA1535, Metabolic Activation: HAMSTER, LIVER, S-9, AROCLOR 1254 (10%), Method: STANDARD PLATE) is “inactive; negative”; the mutagenic call (Strain/Indicator: TA1535, Metabolic Activation: HAMSTER, LIVER, S-9, AROCLOR 1254, Method: STANDARD PLATE) is “inactive; negative”. Moreover, the mutagenic call under setting [5] is “inactive; negative”; the mutagenic call (Strain/Indicator: TA1535, Metabolic Activation: RAT, LIVER, S-9, AROCLOR 1254 (10%), Method: STANDARD PLATE) is “inactive; negative”; the mutagenic call under setting [6] is “inactive; negative”; the mutagenic call (Strain/Indicator: TA1537, Metabolic Activation: HAMSTER, LIVER, S-9, AROCLOR 1254 (10%), Method: STANDARD PLATE) was “active; positive”; the mutagenic call (Strain/Indicator: TA1537, Metabolic Activation: HAMSTER, LIVER, S-9, AROCLOR 1254, Method: STANDARD PLATE) was “active; positive”; the mutagenic call under setting [7] was “active; positive”. In addition, the mutagenic call by setting is: (Strain/Indicator: TA1537, Metabolic Activation: RAT, LIVER, S-9, AROCLOR 1254 (10%), Method: STANDARD PLATE) “active; positive”; under setting [8], “active; positive”; (Strain/Indicator: TA1538, Metabolic Activation: HAMSTER, LIVER, S-9, AROCLOR 1254 (10%), Method: STANDARD PLATE) “active; positive”; (Strain/Indicator: TA1538, Metabolic Activation: HAMSTER, LIVER, S-9, AROCLOR 1254, Method: STANDARD PLATE) “active; positive”; (Strain/Indicator: TA1538, Metabolic Activation: NONE, Method: STANDARD PLATE) “active; positive”; (Strain/Indicator: TA1538, Metabolic Activation: RAT, LIVER, S-9, AROCLOR 1254 (10%), Method: STANDARD PLATE) “active; positive”. Further, the mutagenic call (Strain/Indicator: TA1538, Metabolic Activation: RAT, LIVER, S-9, AROCLOR 1254, Method: STANDARD PLATE) was “active; positive”.

Consider `C[C@]12CC[C@H](OC(=O)/C=C/c3cccc(N(CCCl)CCCl)c3)C[C@@H]1CC[C@@H]1[C@@H]2CC[C@]2(C)NC(=O)CC[C@@H]12`, for which the mutagenic call is, setting by setting: under setting [1], “inactive; negative”; under setting [2], “inactive; negative”; under setting [3], “inactive; negative”; under setting [4], “inactive; negative”; under setting [5], “inactive; negative”; under setting [6], “inactive; negative”. The mutagenic call under setting [7] was “inactive; negative” and the mutagenic call under setting [8] was “inactive; negative”.

Turning to `[O-][n+]1ccc2cnncc2c1`, the mutagenic call reads like this: (Strain/Indicator: TA98, Metabolic Activation: NONE, Method: PREINCUBATION) “active; positive”; (Strain/Indicator: TA98, Metabolic Activation: RAT, LIVER, S-9, PCB, Method: PREINCUBATION) “active; positive”; (Strain/Indicator: TA100, Metabolic Activation: NONE, Method: PREINCUBATION) “inactive; negative”; (Strain/Indicator: TA100, Metabolic Activation: RAT, LIVER, S-9, PCB, Method: PREINCUBATION) “active; positive”.
